These results are taken from patent publication US9365548B2, “Benzoimidazol-2-yl pyrimidines and pyrazines as modulators of the histamine H4 receptor” (Janssen Pharmaceutica NV, priority 2006, dated 2016).

The target in the experiment is T1, Recombinant Human Histamine H4 Receptor (Homo sapiens, UniProt Q9H3N8).
T1 construct: expressed in transfected cells; host or cells: SK-N-MC cells or COS7 cells, transiently transfected; cell membranes used
T1 sequence (Q9H3N8 whole entry): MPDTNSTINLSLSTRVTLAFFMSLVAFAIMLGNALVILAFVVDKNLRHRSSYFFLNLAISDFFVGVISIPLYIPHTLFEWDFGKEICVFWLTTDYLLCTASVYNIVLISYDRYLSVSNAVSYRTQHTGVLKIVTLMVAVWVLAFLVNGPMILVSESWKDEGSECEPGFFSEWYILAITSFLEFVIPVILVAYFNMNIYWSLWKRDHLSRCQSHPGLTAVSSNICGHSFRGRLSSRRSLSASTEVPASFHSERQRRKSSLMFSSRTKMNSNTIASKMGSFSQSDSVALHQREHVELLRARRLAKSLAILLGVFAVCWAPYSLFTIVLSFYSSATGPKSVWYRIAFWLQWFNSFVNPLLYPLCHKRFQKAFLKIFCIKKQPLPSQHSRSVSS
Briefly: Binding Assay on Recombinant Human Histamine H4 Receptor. The note with it: competition binding with 3H-histamine, membranes of SK-N-MC or COS7 cells expressing human histamine H4 receptor; Ki by Cheng-Prusoff (KD 5 nM, ligand 5 nM); average of results obtained. The text has this:
Additional examples of embodiments of this invention are provided by hemitartrate salts of compounds of Formula (I) and by hydrates, such as monohydrates and dihydrates, of compounds of Formula (I). […]
Consider `Cc1nc(NCCCC2CCN(C)CC2)ncc1-c1nc2c(F)cc(F)cc2[nH]1` [Example 6, [5-(4,6-Difluoro-1H-benzoimidazol-2-yl)-4-methyl-pyrimidin-2-yl]-[3-(1-methyl-piperidin-4-yl)-propyl]-amine], for which the inhibitory constant (Ki) turned out to be 17 nM.

`Cc1cc(F)cc2[nH]c(-c3cnc(NCCCC4CCN(C)CC4)nc3C(F)(F)F)nc12` [Example 28, [5-(6-Fluoro-4-methyl-1H-benzoimidazol-2-yl)-4-trifluoromethyl-pyrimidin-2-yl]-[3-(1-methyl-piperidin-4-yl)-propyl]-amine]: the Ki was 62 nM.

In the case of `Cc1c(F)ccc2[nH]c(-c3cnc(NCCCC4CCN(C)CC4)cn3)nc12` [Example 33, [5-(5-Fluoro-4-methyl-1H-benzoimidazol-2-yl)-pyrazin-2-yl]-[3-(1-methyl-piperidin-4-yl)-propyl]-amine], the inhibition constant (Ki) stood at 250 nM.

For the compound `Cc1ccc2[nH]c(-c3cnc(NCCCC4CCN(C)CC4)nc3C(F)(F)F)nc2c1C` [Example 30, [5-(4,5-Dimethyl-1H-benzoimidazol-2-yl)-4-trifluoromethyl-pyrimidin-2-yl]-[3-(1-methyl-piperidin-4-yl)-propyl]-amine], the Ki turned out to be 230 nM. Consider “[5-(4,5-Dimethyl-1H-benzoimidazol-2-yl)-4-ethyl-pyrimidin-2-yl]-methyl-[3-(1-methyl-piperidin-4-yl)-propyl]-amine [Example 8]”, for which the Ki was 29 nM. The value for `Cc1cc(C)c2nc(-c3cnc(N(C)CCCC4CCN(C)CC4)nc3C)[nH]c2c1` [Example 7, [5-(4,6-Dimethyl-1H-benzoimidazol-2-yl)-4-methyl-pyrimidin-2-yl]-methyl-[3-(1-methyl-piperidin-4-yl)-propyl]-amine] was 83 nM; that for `Cc1ccc2[nH]c(-c3cnc(NCCCC4CCN(C)CC4)nc3C)nc2c1C` [Example 5, [5-(4,5-Dimethyl-1H-benzoimidazol-2-yl)-4-methyl-pyrimidin-2-yl]-[3-(1-methyl-piperidin-4-yl)-propyl]-amine] was 4 nM; that for `Cc1nc(NCCCC2CCN(C)CC2)ncc1-c1nc2cc(C(F)(F)F)ccc2[nH]1` [Example 24, [3-(1-Methyl-piperidin-4-yl)-propyl]-[4-methyl-5-(5-trifluoromethyl-1H-benzoimidazol-2-yl)-pyrimidin-2-yl]-amine] was 12 nM. In the case of `Cc1nc(NCCCC2CCN(C)CC2)ncc1-c1nc2cc(C(C)(C)C)ccc2[nH]1` [Example 25, [5-(5-tert-Butyl-1H-benzoimidazol-2-yl)-4-methyl-pyrimidin-2-yl]-[3-(1-methyl-piperidin-4-yl)-propyl]-amine] it was 13 nM; in that of `Cc1c(F)ccc2[nH]c(-c3cnc(NCCCC4CCN(C)CC4)nc3C3CCC3)nc12` [Example 16, [4-Cyclobutyl-5-(5-fluoro-4-methyl-1H-benzoimidazol-2-yl)-pyrimidin-2-yl]-[3-(1-methyl-piperidin-4-yl)-propyl]-amine], 1470 nM; in that of `Cc1cccc2[nH]c(-c3cnc(NCCCC4CCN(C)CC4)nc3C3CC3)nc12` [Example 44, [4-Cyclopropyl-5-(4-methyl-1H-benzoimidazol-2-yl)-pyrimidin-2-yl]-[3-(1-methyl-piperidin-4-yl)-propyl]-amine], 560 nM. For `Cc1c(F)ccc2[nH]c(-c3cnc(NCCCC4CCN(C)CC4)nc3C(C)C)nc12` [Example 20, [5-(5-Fluoro-4-methyl-1H-benzoimidazol-2-yl)-4-isopropyl-pyrimidin-2-yl]-[3-(1-methyl-piperidin-4-yl)-propyl]-amine], the Ki is 230 nM.

For `Cc1nc(NCCCC2CCN(C)CC2)ncc1-c1nc2cc(Cl)c(Cl)cc2[nH]1` [Example 41, [5-(5,6-Dichloro-1H-benzoimidazol-2-yl)-4-methyl-pyrimidin-2-yl]-[3-(1-methyl-piperidin-4-yl)-propyl]-amine], the inhibition constant (Ki) was determined as 6 nM.

On to `CN1CCC(CCCNc2ncc(-c3nc4cc(F)c(F)cc4[nH]3)c(C(F)(F)F)n2)CC1` [Example 31, [5-(5,6-Difluoro-1H-benzoimidazol-2-yl)-4-trifluoromethyl-pyrimidin-2-yl]-[3-(1-methyl-piperidin-4-yl)-propyl]-amine], for which the inhibition constant (Ki) was found to be 230 nM.
